According to patent publication EP0177710A1, “Phenyl urea derivatives” (BAYER AG, priority 1984, dated 1986):

System: Unkräutern in Mais
Assay: Post-emergence test / greenhouse
Format: in vivo
Conditions: post-emergence spray, control of weeds in maize, rated after three weeks; compared with comparison substance (A)
Text: Post-emergence-Test/Gewächshaus
Lösungsmittel: 5 Gewichtsteile Aceton
Emulgator: 1 Gewichtsteil Alkylarylpolyglykolether
Zur Herstellung einer zweckmäßigen Wirkstoffzubereitung vermischt man 1 Gewichtsteil Wirkstoff mit der angegebenen Menge Lösungsmittel, gibt die angegebene Menge Emulgator zu und verdünnt das Konzentrat mit Wasser auf die gewünschte Konzentration.
Mit der Wirkstoffzubereitung spritzt man Testpflanzen, welche eine Höhe von 5 - 15 cm haben so, daß die jeweils gewünschten Wirkstoffmengen pro Flächeneinheit ausgebracht werden. Die Konzentration der Spritzbrühe wird so gewählt, daß in 2000 1 Wasser/ha die jeweils gewünschten Wirkstoffmengen ausgebracht werden. Nach drei Wochen wird der Schädigungsgrad der Pflanzen bonitiert in % Schädigung im Vergleich zur Entwicklung der unbehandelten Kontrolle.
Es bedeuten: • O % = keine Wirkung (wie unbehandelte Kontrolle) 100 % = totale Vernichtung

CC(C)n1cc(Oc2ccc(NC(=O)N(C)C)cc2)cn1 [I-1]
selektive herbizide Wirksamkeit: bessere selektive herbizide Wirksamkeit
